Reference: the supplement of paper PMC10307832

Columns and labels:
Experiment in all cases: relative viability (nuclei count vs DMSO), 5 days (fraction); higher = more cells survive
Avagacestat = compound: NC(=O)[C@@H](CCC(F)(F)F)N(Cc1ccc(-c2ncon2)cc1F)S(=O)(=O)c1ccc(Cl)cc1 [Avagacestat]
How it was run: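 Nuclei counted with MetaXpress define viability as the ratio of treated to vehicle wells, given as a median across plates. The lung cancer cell lines were in 1536-well plates, pinned with five √10-spaced library-drug doses and imaged at 4× after 5 days and Hoechst staining. Plates passed with control CV below 25% and at least one doubling.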

Avagacestat + Tozasertib = compound: NC(=O)[C@@H](CCC(F)(F)F)N(Cc1ccc(-c2ncon2)cc1F)S(=O)(=O)c1ccc(Cl)cc1 [Avagacestat] + Cc1cc(Nc2cc(N3CCN(C)CC3)nc(Sc3ccc(NC(=O)C4CC4)cc3)n2)n[nH]1 [Tozasertib] (partner 0.1 µM)
How it was run: (§1)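 Nuclei were stained with Hoechst during a one-step fixation (final 0.05% Triton X-100, 1% formaldehyde, 1 ug/ml Hoechst) carried out 5 days after dosing, then counted on 4× images. The cells, lung cancer lines in 1536-well plates, had been dosed by pin tool the day after seeding with one drug alone or a fixed anchor-drug dose plus five library-drug doses (not always all listed) in √10 steps. Relative viability is the nuclei count in treated wells divided by that in vehicle wells, and each value is the median of duplicate plates.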

Avagacestat + Navitoclax = compound: NC(=O)[C@@H](CCC(F)(F)F)N(Cc1ccc(-c2ncon2)cc1F)S(=O)(=O)c1ccc(Cl)cc1 [Avagacestat] + CC1(C)CCC(c2ccc(Cl)cc2)=C(CN2CCN(c3ccc(C(=O)NS(=O)(=O)c4ccc(N[C@H](CCN5CCOCC5)CSc5ccccc5)c(S(=O)(=O)C(F)(F)F)c4)cc3)CC2)C1 [Navitoclax] (partner 0.5 µM)
How it was run: as §1

Avagacestat + Phenformin = compound: NC(=O)[C@@H](CCC(F)(F)F)N(Cc1ccc(-c2ncon2)cc1F)S(=O)(=O)c1ccc(Cl)cc1 [Avagacestat] + N=C(N)NC(=N)NCCc1ccccc1 [Phenformin] (partner 250 µM)
How it was run: as §1

Cell Line	relative viability (Avagacestat; 0.08 µM)	relative viability (Avagacestat; 0.253 µM)	relative viability (Avagacestat; 0.8 µM)	relative viability (Avagacestat; 2.53 µM)	relative viability (Avagacestat; 8 µM)	relative viability (Avagacestat + Tozasertib; first compound 0.08 µM)	relative viability (Avagacestat + Tozasertib; first compound 0.253 µM)	relative viability (Avagacestat + Tozasertib; first compound 0.8 µM)	relative viability (Avagacestat + Tozasertib; first compound 2.53 µM)	relative viability (Avagacestat + Tozasertib; first compound 8 µM)	relative viability (Avagacestat + Navitoclax; first compound 0.08 µM)	relative viability (Avagacestat + Navitoclax; first compound 0.253 µM)	relative viability (Avagacestat + Navitoclax; first compound 0.8 µM)	relative viability (Avagacestat + Navitoclax; first compound 2.53 µM)	relative viability (Avagacestat + Navitoclax; first compound 8 µM)	relative viability (Avagacestat + Phenformin; first compound 0.08 µM)	relative viability (Avagacestat + Phenformin; first compound 0.253 µM)	relative viability (Avagacestat + Phenformin; first compound 0.8 µM)	relative viability (Avagacestat + Phenformin; first compound 2.53 µM)	relative viability (Avagacestat + Phenformin; first compound 8 µM)
201T	0.995	1	1.1	0.927	0.965	0.967	1.06	0.922	0.843	0.9	1.19	1.21	1.25	1.19	1.18	0.55	0.514	0.471	0.424	0.424
A549	1.1	1.37	1.15	1.03	0.993	–	–	–	–	–	1.64	1.65	1.27	1.26	1.25	0.276	0.218	0.181	0.226	0.538
A-427	1.12	1.12	1.17	1.07	1.08	0.203	0.185	0.206	0.198	0.198	0.994	0.99	1.03	0.967	0.968	0.312	0.27	0.312	0.268	0.296
ABC-1	1.1	1.25	1.26	1.14	0.877	0.164	0.16	0.178	0.187	0.179	–	–	–	–	–	0.232	0.228	0.221	0.25	0.263
BEN	1.13	1.02	1.06	0.959	0.917	0.512	0.504	0.526	0.449	0.49	0.0581	0.0757	0.141	0.061	0.0756	0.262	0.274	0.271	0.25	0.26
CAL-12T	1.09	1.12	1.11	1.11	1.04	0.368	0.358	0.385	0.24	0.278	1.52	1.44	1.3	1.32	1.22	0.721	0.578	0.662	0.614	0.403
Calu-6	1.15	1.22	1.13	1.07	1.04	–	–	–	–	–	1.07	0.99	0.922	1.06	0.81	–	–	–	–	–
EBC-1	1.07	1.11	1.12	0.942	0.8	–	–	–	–	–	0.342	0.392	0.334	0.372	0.296	–	–	–	–	–
IA-LM	1.83	1.62	1.44	1.51	1.26	–	–	–	–	–	1.25	1.3	1.34	1.21	1.18	–	–	–	–	–
LCLC-103H	0.994	0.928	0.921	0.929	0.941	0.58	0.55	0.512	0.391	0.449	–	–	–	–	–	0.344	0.298	0.348	0.343	0.294
NCI-H358	1.02	1	1.03	0.835	0.835	0.106	0.0996	0.102	0.101	0.107	–	–	–	–	–	0.357	0.352	0.391	0.323	0.325
NCI-H522	0.922	1.04	0.969	1.12	0.938	0.559	0.593	0.579	0.517	0.479	–	–	–	–	–	0.71	0.59	0.669	0.641	0.649
NCI-H650	1.02	0.966	1.05	1.16	0.872	0.872	0.973	0.761	0.65	0.702	–	–	–	–	–	0.484	0.456	0.461	0.524	0.41
NCI-H661	1.02	1.2	1.04	0.85	1.02	0.356	0.381	0.361	0.363	0.37	–	–	–	–	–	0.301	0.293	0.298	0.296	0.3
NCI-H1299	1.03	1.11	1.06	1.04	1	–	–	–	–	–	1.04	1.03	1.08	1.08	1.04	–	–	–	–	–
NCI-H1563	0.984	0.986	0.968	0.798	0.813	–	–	–	–	–	–	–	–	–	–	0.665	0.669	0.746	0.646	0.658
NCI-H1648	0.583	0.705	0.513	0.55	0.457	0.374	0.464	0.371	0.296	0.298	–	–	–	–	–	–	–	–	–	–
NCI-H1703	1.24	1.03	0.975	0.955	0.873	–	–	–	–	–	1.16	0.993	1.17	1.11	0.891	–	–	–	–	–
NCI-H1792	1.15	0.866	1.36	0.859	0.761	–	–	–	–	–	1.25	0.584	1.13	0.538	0.417	0.474	0.304	0.391	0.19	0.304
NCI-H2342	0.955	0.906	0.935	0.888	0.949	0.593	0.48	0.57	0.493	0.527	–	–	–	–	–	0.634	0.53	0.629	0.59	0.588
